Test results taken from US7663000B2, “Quinoneimines of malonic acid diamides” (A-Viral ASA, priority 2003, dated 2010).

Assay: Stability in aqueous solution, analysed by 1H NMR
Format: physicochemical
Text: The product of Example 2 (PHBPQ, N-phenyl-2-hydroxy-2 butyl 1,3-propanal quinoneimine) was examined for stability in aqueous solution, followed by analysis by ^1H NMR spectroscopy.

## N-phenyl-2-hydroxy-2 butyl 1,3-propanal quinoneimine [PHBPQ]
pH 7.4
  stability compared with 4-OH-OPB: more stable at pH 7.4 than 4-OH-OPB
When the solution was acidified
  re-conversion into 4-OH-OPB: not re-converted into 4-OH-OPB
